Results from US10596223B2, “JNK inhibitor molecules for treatment of various diseases” (Xigen Inflammation Ltd., priority 2011, dated 2020).
Square brackets hold non-standard residues; d marks the D form. Peptide text beside a SMILES is read from it.

Assays:
[1] = test system: endotoxins-induced uveitis albino rat model; test: Endotoxins induced uveitis (EIU), single intravenous injection, clinical scoring 24 hours after LPS; assay type: in vivo; set-up: key to clinical score of ocular inflammation, mean score (mean±SEM) / clinical score of ocular inflammation, median: ocular inflammation score per eye, 0 = none to 4 = intense (+1 fibrin); conditions: for clinical score of ocular inflammation, mean score (mean±SEM) / clinical score of ocular inflammation, median: 24 hours after LPS
Description: FIG. 28 Clinical evaluation of administration of different amounts of the JNK inhibitor according to SEQ ID NO: 172 in albino rats after intravenous administration (endotoxins induced uveitis model). Form left to right: Vehicle, 0.015 mg/kg (i.v.) of SEQ ID NO: 172; 0.18 mg/kg (i.v.) of SEQ ID NO: 172; 1.8 mg/kg (i.v.) of SEQ ID NO: 172, 2 mg/kg (i.v.) of SEQ ID NO: 197 and 20 μg dexamethasone (administered directly by subconjunctival injection to the eye). Indicated is the clinical score (mean and the SEM).
The anti-inflammatory potency of the JNK inhibitor of SEQ ID NO: 172 was tested in albino rats following intravenous administration (EIU/LPS model). The aim of this study was to determine the effects of single intravenous injections of SEQ ID NO: 172 (0.015, 0.18, and 1.80 mg/kg) on the inflammatory response in an endotoxins-induced uveitis albino rat model and to compare these affects to those obtained with prior art JNK inhibitor of SEQ ID NO: 197 (2 mg/kg). As a further control served phosphate sodic dexamethasone.
Sixty (60) male Lewis rats were randomly divided into six (6) groups of ten (10) animals each. EIU was induced by footpad injection of lipopolysaccharide (LPS, 1 mg/kg). NaCl (0.9%), SEQ ID NO: 197 at 2 mg/kg and SEQ ID NO: 172 at three concentrations (1.80 mg/kg, 0.18 mg/kg and 0.015 mg/kg) were administered by intravenous injection. Phosphate sodic dexamethasone ([…]) was administered by sub-conjunctival injection in both eyes. 24 hours after LPS injection, inflammatory response was evaluated by clinical scoring.
The intensity of clinical ocular inflammation was scored on a scale from 0 to 4 for each eye: • Grade 0 no inflammation • Grade 1 slight iris and conjunctival vasodilation • Grade 2 moderate iris and conjunctival vasodilation with flare • Grade 3 intense iris and conjunctival vasodilation with flare • Grade 4 intense inflammatory reaction • (+1) fibrin formation and seclusion of pupils

[2] = test system: THP1-PMA-differentiated macrophages; test: LPS-induced cytokine and chemokine release in PMA differentiated THP1 macrophages (ELISA); assay type: cell-based, human
Description: In the following the procedure will be set forth describing how the released amount of several human cytokines after ligand induced secretion from human cells (Blood, WBC, PBMC, purified primary lymphocytes, cell lines, . . . ) was measured.
The technique used is a Sandwich ELISA, which allows measuring the amount of antigen between two layers of antibodies (i.e. capture and detection antibody). The antigen to be measured must contain at least two antigenic sites capable of binding to antibody, since at least two antibodies act in the sandwich. Either monoclonal or polyclonal antibodies can be used as the capture and detection antibodies in Sandwich ELISA systems. Monoclonal antibodies recognize a single epitope that allows fine detection and quantification of small differences in antigen. A polyclonal is often used as the capture antibody to pull down as much of the antigen as possible.
The method may be used to determine the effect of the JNK inhibitors of the present invention in vitro/cell culture. At non toxic doses, compound efficacy is indicated by the decrease of the cytokine levels (the variation of optical density (absorbance at 450 nm)) as compared to non-treated samples and is monitored by ELISA. Results are express in ng/ml.
In the following the procedure will be set forth describing how cytokine production from human PMA differentiated THP1 cells challenged by LPS for 6 h was induced in order to test the ability of JNK inhibitors of the present invention, in particular of a JNK inhibitor with SEQ ID NO: 172, to reduce stimulation-induced cytokine release. THP1 cells were stimulated ex-vivo by different ligands for the readout of cytokine release. At non toxic doses, JNK inhibitor efficacy is indicated by the decrease of the cytokine levels as compared to non-treated samples and is monitored by ELISA. The toxicity of the compound are evaluated by the reduction of a tretazolium salt (MTS) to formazan, giving a purple colour.
a. Material • Cell Line: THP-1 (Ref TIB-202, ATCC, lot 57731475) • Culture medium, reagent and plates • RPMI (Ref 21875-091, Invitrogen) complemented with: • 10% FBS (Ref A15-151, PAA): decomplemented at 56° C., 30 min. • 10 mM Hepes (Ref H0887, Sigma) • 50 μM β-mercaptoethanol (Ref 63690, Fluka: stock at 14.3M): add 560 μl of 50 mM aliquots in PBS stocked at −20° C.) • 1 mM Sodium Pyruvate (Ref 58636, Sigma) • Penicilline (100 unit/ml)/Streptomycine (100 μg/ml) (Ref P4333, Sigma) • The RPMI medium is then filtrated with a […] (Ref SCGPU05RE, Millipore). • PBS 10× (Ref 70011, Invitrogen): diluted to 1× with sterile H2O • DMSO: Ref 41444, Fluka • PMA (phorbol 12-myristate 13-acetate, Ref P1585, Sigma, concentration 1 mM=616.8 ug/ml in DMSO at −20° C.). […]

[3] = THP1 differentiated macrophages, LPS 6 h (10 ng/ml)

CC(C)C[C@H](NC(=O)[C@H](CC(N)=O)NC(=O)[C@H](CC(C)C)NC(=O)[C@@H](NC(=O)[C@@H](C)NC(=O)[C@@H]1CCCN1C(=O)[C@H](CCCNC(=N)N)NC(=O)[C@@H](CCCCN)NC(=O)[C@@H]1CCCN1C(=O)[C@H](CCCNC(=N)N)NC(=O)[C@@H](CCCNC(=N)N)NC(=O)[C@H](CCCNC(=N)N)NC(=O)[C@H](CCCNC(=N)N)NC(=O)[C@H](CCC(N)=O)NC(=O)[C@@H](CCCNC(=N)N)NC(=O)[C@H](CCCNC(=N)N)NC(=O)[C@H](CCCCN)NC(=O)[C@H](CCCCN)NC(=O)[C@H](N)CCCNC(=N)N)[C@@H](C)O)C(=O)N[C@H](Cc1ccccc1)C(N)=O [SEQ ID NO: 172, rKKRrQRRrRPkRPaTLNLf] (H-[dR]KKR[dR]QRR[dR]RP[dK]RP[dA]TLNL[dF]-NH2; N-terminus assumed)
clinical score of ocular inflammation, mean score (mean±SEM) ([1]; 0.015 mg/kg intravenous): 2.3±0.3 | clinical score of ocular inflammation, median ([1]; 0.015 mg/kg intravenous): 2 | clinical score of ocular inflammation, mean score (mean±SEM) ([1]; 0.18 mg/kg intravenous): 2.4±0.3 | clinical score of ocular inflammation, median ([1]; 0.18 mg/kg intravenous): 2 | clinical score of ocular inflammation, mean score (mean±SEM) ([1]; 1.80 mg/kg intravenous): 2.1±0.3 | clinical score of ocular inflammation, median ([1]; 1.80 mg/kg intravenous): 2 | endotoxin-induced inflammation in the anterior chamber (conclusion) ([1]; single intravenous injection, SEQ ID NO: 197 at 2 mg/kg, SEQ ID NO: 172 at 0.015, 0.18, 1.80 mg/kg): also reduced the endotoxin-induced inflammation | LPS-induced TNFα release, potency comparison ([2]; PMA differentiated macrophages): higher potency than D-TAT-IB1 (SEQ ID NO: 197) and L-TAT-IB1 (SEQ ID NO: 196) | LPS-induced IL-6 release, potency comparison ([2]; PMA differentiated macrophages, LPS 6 h): higher potency than D-TAT-IB1 (SEQ ID NO: 197) and L-TAT-IB1 (SEQ ID NO: 196) | LPS-induced IL6 release, potency comparison [2, 3]: higher potency than D-TAT-IB1 (SEQ ID NO: 197), dTAT (SEQ ID NO: 45) and SP 600125 | LPS-induced TNFα release, potency comparison [2, 3]: higher potency than D-TAT-IB1 (SEQ ID NO: 197), dTAT (SEQ ID NO: 4.5) and SP 600125
